Measured values reported in PubChem BioAssay (NCI).
Where “and” joins values, the source holds several entries; their conditions need not be identical. Equal values may be shown once.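 All cell lines were grown in 96-well plates and treated with compound for 48 hours. The concentration for 50% growth inhibition is given as GI50. TGI: concentration producing complete growth inhibition.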

Legend:
Assay in all cases: NCI anticancer screen, dose series, 48 h
UACC-62 melanoma = test system: UACC-62 melanoma
SK-MEL-2 melanoma = test system: SK-MEL-2 melanoma
MALME-3M melanoma = test system: MALME-3M melanoma
NCI/ADR-RES ovarian = test system: NCI/ADR-RES ovarian
OVCAR-5 ovarian = test system: OVCAR-5 ovarian
SF-539 CNS = test system: SF-539 CNS
HOP-62 NSCLC = test system: HOP-62 NSCLC
HCT-15 colon = test system: HCT-15 colon
RPMI-8226 leukemia = test system: RPMI-8226 leukemia
HT29 colon = test system: HT29 colon
DU-145 prostate = test system: DU-145 prostate
SNB-19 CNS = test system: SNB-19 CNS
T-47D breast = test system: T-47D breast
EKVX NSCLC = test system: EKVX NSCLC

SMILES	GI50 (UACC-62 melanoma)	TGI (UACC-62 melanoma)	GI50 (SK-MEL-2 melanoma)	TGI (SK-MEL-2 melanoma)	GI50 (MALME-3M melanoma)	TGI (MALME-3M melanoma)	TGI (NCI/ADR-RES ovarian)	TGI (OVCAR-5 ovarian)	TGI (SF-539 CNS)	TGI (HOP-62 NSCLC)	TGI (HCT-15 colon)	GI50 (RPMI-8226 leukemia)	TGI (RPMI-8226 leukemia)	TGI (HT29 colon)	TGI (DU-145 prostate)	TGI (SNB-19 CNS)	GI50 (T-47D breast)	TGI (T-47D breast)	GI50 (EKVX NSCLC)	TGI (EKVX NSCLC)
CN1CCN(c2ccc3nc(-c4ccc5nc(-c6ccc(O)cc6)[nH]c5c4)[nH]c3c2)CC1	14 µM and 86.9 µM and 28 µM	118 µM	198 µM	578 µM	3.29 µM	62.5 µM	786 µM	679 µM	237 µM	1040 µM	736 µM	183 µM	648 µM	295 µM	526 µM	909 µM	4.32 µM and 14.2 µM	153 µM	257 µM	489 µM
C=C(CN1CC2C[C@](C(=O)OC)(c3cc4ccccc4[nH]3)C1C(OC)C2OC)S(=O)(=O)c1ccccc1 (stereo partly specified)	–	14.8 µM	–	12.3 µM	–	7.38 µM	20.7 µM	13.1 µM	16.9 µM	23.4 µM	8.61 µM	–	6.06 µM	9.44 µM	14.1 µM	24.3 µM	–	28.2 µM	–	13 µM
CCN(CC)Cc1c(/C=C\c2cc(OC)c(OC)c(OC)c2)ccc(OC)c1O	–	27.7 µM	–	> 37.1 µM	–	> 100 µM	6.29 µM	> 100 µM	9.24 µM	> 100 µM	34.8 µM	–	> 100 µM	9.48 µM	39.7 µM	> 100 µM	–	> 100 µM	–	> 93.5 µM
COC(=O)[C@H](CC(C)C)Nc1c(O)c2c(c(O)c1Cl)C(=O)C=CC2=O	–	> 10 µM	–	> 10 µM	–	> 10 µM	> 10 µM	> 10 µM	> 10 µM	> 10 µM	> 10 µM	–	> 10 µM	9.41 µM	> 10 µM	> 10 µM	–	> 10 µM	–	> 10 µM
O=C(NCCNCCCNC(=O)c1cc(-c2ccccc2)nc2ccccc12)c1cccc(OCc2ccccc2)c1OCc1ccccc1	–	3.61 µM	–	–	–	3.58 µM	3.51 µM	3.37 µM	3.19 µM	3.01 µM	3.25 µM	–	5.05 µM	2.98 µM	3.26 µM	–	–	4.2 µM	–	3.1 µM
COC1OC(COC(=O)c2cc(O)c(O)c(O)c2)C(OC(=O)c2cc(O)c(O)c(O)c2)C(OC(=O)c2cc(O)c(O)c(O)c2)C1OC(=O)c1cc(O)c(O)c(O)c1 (stereo unspecified)	–	> 100 µM	–	> 100 µM	–	> 100 µM	98.4 µM	> 100 µM	37.1 µM	> 100 µM	> 100 µM	–	97.3 µM	> 100 µM	> 100 µM	> 100 µM	–	> 100 µM	–	> 100 µM
C[C@@H](NC(=O)c1ccc(CNC(=O)/C=C/c2cccc(Oc3ccccc3)c2)cc1)c1ccccc1	–	> 100 µM	–	> 100 µM	–	> 100 µM	> 100 µM	> 100 µM	30.6 µM	> 61.7 µM	> 100 µM	–	> 100 µM	> 100 µM	> 100 µM	> 52.2 µM	–	> 100 µM	–	> 65.8 µM
CC(=O)C1=C(C)N(c2ccc(C)cc2)C2(O)C3=C(C(=O)c4ccccc4C3=O)C(O)=CC12Cl (stereo unspecified)	–	26.5 µM	–	33 µM	–	36.5 µM	28.3 µM	71.6 µM	> 100 µM	> 100 µM	> 100 µM	–	> 100 µM	60.1 µM	> 100 µM	35.8 µM	–	69.1 µM	–	> 100 µM
Nc1nc2c(ncn2Cc2ccccc2CO)c(=O)[nH]1	–	> 100 µM	–	> 100 µM	–	> 100 µM	> 100 µM	> 100 µM	> 100 µM	> 100 µM	> 100 µM	–	> 100 µM	> 100 µM	> 100 µM	> 100 µM	–	> 100 µM	–	> 100 µM
O=C(O)CCCc1ccc2ccccc2c1	–	> 100 µM	–	> 100 µM	–	–	> 100 µM	> 100 µM	> 100 µM	> 100 µM	> 100 µM	–	> 100 µM	> 100 µM	> 100 µM	> 100 µM	–	> 100 µM	–	> 100 µM
CCN(CC)CCNc1ccc2nnn3c4ccc(O)cc4c(=O)c1c23	–	22.1 µM	–	25.2 µM	–	19.4 µM	12.2 µM	22.4 µM	18.4 µM	14 µM	17.6 µM	–	19.8 µM	15 µM	27.6 µM	22.2 µM	–	39.7 µM	–	21.5 µM
COc1ccc2nc3ccc(OC)cc3c(SCc3ccccc3)c2c1	–	> 100 µM	–	> 100 µM	–	> 100 µM	> 100 µM	> 100 µM	> 100 µM	> 100 µM	> 100 µM	–	> 100 µM	> 100 µM	> 100 µM	> 100 µM	–	> 100 µM	–	> 100 µM
CSc1ncc2c(n1)sc1c(=O)n(-c3ccccc3)cnc12	–	> 100 µM	–	> 100 µM	–	> 100 µM	> 100 µM	> 100 µM	–	> 100 µM	> 100 µM	–	> 100 µM	> 100 µM	> 100 µM	> 100 µM	–	> 100 µM	–	–
COC(=O)/C=C/C1(O)C=CC(=O)C=C1	–	7.43 µM	–	19.1 µM	–	8.26 µM	> 68.2 µM	12 µM	4.45 µM	14.4 µM	> 31.9 µM	–	> 100 µM	–	9.57 µM	18.1 µM	–	> 20.8 µM	–	10.4 µM
FC(F)(Sc1ncc[nH]1)c1nc2ccccc2o1	–	> 100 µM	–	> 100 µM	–	> 100 µM	> 100 µM	> 100 µM	> 100 µM	> 100 µM	> 100 µM	–	> 100 µM	> 100 µM	> 100 µM	–	–	> 100 µM	–	–
O=C(O)CC(Sc1ccccc1)c1ccccc1 (stereo unspecified)	–	> 100 µM	–	> 100 µM	–	> 100 µM	> 100 µM	> 100 µM	–	> 100 µM	> 100 µM	–	> 100 µM	> 100 µM	> 100 µM	> 100 µM	–	> 100 µM	–	> 100 µM
